Laboratory results: PMC12124671, “Drug repurposing reveals posaconazole as a CYP11A1 inhibitor enhancing anti-tumor immunity” (iScience, 2025)

Columns and labels:
[1] = molecular target: T1, CYP11A1 (Mus musculus, UniProt Q9QZ82); assay: pregnenolone ELISA in murine Th2 cells (endogenous Cyp11a1), reference inhibitor, […] h dose response; type: cell-based
T1 sequence (Q9QZ82 37-526): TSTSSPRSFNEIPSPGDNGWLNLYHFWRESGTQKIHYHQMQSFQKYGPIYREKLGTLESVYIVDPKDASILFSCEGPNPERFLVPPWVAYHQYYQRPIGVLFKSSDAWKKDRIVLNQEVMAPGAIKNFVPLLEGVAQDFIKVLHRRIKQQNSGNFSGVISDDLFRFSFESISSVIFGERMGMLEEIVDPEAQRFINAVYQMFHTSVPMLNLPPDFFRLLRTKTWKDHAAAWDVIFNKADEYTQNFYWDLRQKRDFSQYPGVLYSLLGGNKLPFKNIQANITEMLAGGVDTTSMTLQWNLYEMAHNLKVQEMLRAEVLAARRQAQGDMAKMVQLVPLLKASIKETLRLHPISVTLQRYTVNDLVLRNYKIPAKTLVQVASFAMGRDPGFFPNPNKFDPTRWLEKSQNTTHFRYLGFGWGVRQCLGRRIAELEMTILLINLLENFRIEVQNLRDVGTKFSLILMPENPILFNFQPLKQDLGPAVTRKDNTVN

[2] = molecular target: T1, CYP11A1; assay: pregnenolone ELISA in murine Th2 cells (endogenous Cyp11a1), dose response; type: cell-based

With `CCC1(c2ccc(N)cc2)CCC(=O)NC1=O` (centres unmarked) [aminoglutethimide] the IC50 [1] was 1080 nM.

`CC[C@@H]([C@H](C)O)n1ncn(-c2ccc(N3CCN(c4ccc(OC[C@@H]5CO[C@@](Cn6cncn6)(c6ccc(F)cc6F)C5)cc4)CC3)cc2)c1=O` [posaconazole] was tested, and the IC50 [2] was 218 nM.
